Our source for the IC50 and inhibition values is patent US4432906A, “Inhibitors of SRS-synthesis” (Hoffmann-La Roche Inc., priority 1981, dated 1984).

SMILES strings stand for the structures. Where only a bound is given, the exact number is not on record here.

This test concerns SRS-A synthesis in rat peritoneal cells. Kind of test: Inhibition of the in vitro synthesis of SRS-A in rat peritoneal cells (ionophore A23187 challenge; SRS-A quantitated by guinea pig ileum bioassay). The test is classed as cell-based, rat (male Sprague-Dawley). As to conditions: for IC50: concentration of test drug which inhibits the synthesis of SRS-A by 50%, from plot of mean percent inhibition versus drug concentration; for inhibition at 10 µM: inhibition of SRS-A synthesis, 10 μM test drug, 10 min preincubation at 37° C., challenge with 5×10^-7 M ionophore A23187, mean percent inhibition. The text has this: Inhibition of the In Vitro Synthesis of SRS-A in Rat Peritoneal Cells
To study the effect of drugs on SRS-A synthesis in rat peritoneal cells, these cells (including mast cells, monocytes, eosinophils and neutrophils)were isolated from male Sprague-Dawley rats (Charles River Laboratories) weighing 180-220 g by the lavage procedure described by Herzig, D. G. and Dusner, E. J. Journal of Pharmacology and Experimental Therapeutics, 194, 457-460 (1975) with the exception that Hanks balanced salt solution used in these experiments was adjusted to pH 6.9 with 5% (V/V) of 0.1 M aqueous phosphate buffer and contained 50 mg/ml sodium heparin. After removal from the peritoneal cavity of rats, the cells were subsequently isolated by centrifugation at 400×gravity for 10 minutes at 4° C. and resuspended to a concentration of about 2,000,000 cells per ml in Hanks buffer.
Samples for evaluation were prepared by adding various concentrations of test drugs to 2 ml aliquots of resuspended cells in Hanks buffer. The 2 ml samples used for control contained 2 ml aliquots of resuspended cells in Hanks buffer without drugs. All of the above samples (2 ml final volume) were preincubated at 37° C. for 10 minutes in the presence of varying concentrations of test drug prior to challenge with 5×10^-7 M ionophore A23187. This ionophore is disclosed in Burka and Flower, Br. J. Pharmacology 65: 35-41 (1979). Antibiotic A 23187 was used as a probe for the study of calcium and function in biological systems. After ionophore challenge, SRS-A was synthesized in the samples by the cells for 10 minutes (at 37° C.) after which this synthesis was terminated by placing the samples in a boiling water bath for 10 minutes followed by centrifugation at 2,000×g (10 minutes) at 4° C. to remove coagulated protein and cellular debris. The SRS-A present in the resulting supernatants was quantitated by a bioassay using a guinea pig ileum as described in Orange, and Austen, Adv. Immunol, 10:105-144 (1969). For this bioassay, a 1.5 cm segment of ileum was removed from animals weighing 300 to 400 g and resuspended in an organ bath containing 10 ml of Tyrodes solution with 10^-6 M atropine sulfate and 10^-6 M pyrilamine maleate. The bath was maintained at 37° C. and aerated with a mixture of 95% O2 and 5% CO2. The concentration of SRS-A in the experimental samples was determined by a comparison of isotonic contraction responses elicited by the samples with those obtained with varying amounts of an SRS-A standard procedures of Orange, R. R. and Austen, K. F. Adv. Immunol. 10:105-144 (1969) against histamine (1 unit of SRS-A being that amount which gives a contractile response similar to that of […]). […]
The mean percent inhibition [formula] at each concentration of the various test drugs was calculated. […]

Broadly, the IC50 is the concentration needed to halve the response being measured. In general, inhibition refers to the relative decrease from the control value, in per cent. A high value points to a response far below the control. As for `CCCCCCCC/C=C\C(C)(C)/C=C\C/C=C\CCCC(=O)O` [(all Z)-10,10-dimethyl-5,8,11-eicosatrienoic acid], the IC50 is < 10000 nM and the inhibition at 10 µM stood at 100%.
In the same order, the values of `CCCCC/C=C\C/C=C\C(C)(C)/C=C\C/C=C\CCCC(=O)O` [(all Z)-10,10-dimethyleicosa-5,8,11,14-tetraenoic acid] are 1000 to 3000 nM and 99 ± 1%.
